Source: patent publication US20080241194A1, “COMPOSITIONS AND METHODS FOR PROTECTING ORGANS, TISSUE AND CELLS FROM IMMUNE SYSTEM-MEDIATED DAMAGE” (THE BOARD OF TRUSTEES OF THE LELAND STANFORD JUNIOR …, priority 1998, published 2008)
Ends that are not written are not given here.

Tests used:
granzyme A = target: T1, granzyme A (Homo sapiens, UniProt P12544); experiment: BLT esterase or SDS-PAGE gelshift assays with granzymes; assay type: biochemical; details: data not shown
T1 sequence (P12544 29-262): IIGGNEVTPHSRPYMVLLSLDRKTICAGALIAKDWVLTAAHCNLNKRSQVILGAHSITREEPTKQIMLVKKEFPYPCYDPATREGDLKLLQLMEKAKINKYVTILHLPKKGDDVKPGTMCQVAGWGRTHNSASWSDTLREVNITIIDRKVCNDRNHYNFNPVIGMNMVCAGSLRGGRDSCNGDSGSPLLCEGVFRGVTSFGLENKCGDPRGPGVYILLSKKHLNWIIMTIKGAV
Excerpt: By sequence homology, Hsp47 is a serine protease inhibitor with theoretical specificity for lysine at the active site of incoming serine proteases. Serpins act as “bait” representing cleavable substrates which form a stable instead of a transitory covalent bond with the active center of serine proteases. […] Thus, serpins inactivate serine proteases in a stoichiometric ratio of 1:1. Despite the sequence relationship, no substrate serine protease has so far been identified for Hsp47. Some authors expect the serpin-domain to be nonfunctional because its “active site” amino acids are modified (Hirayoshi et al., Mol Cell Biol 11:4036-4044 (1991)). […] In ^51Cr-release assays, deletion of the serpin domain led to loss of function of the affected truncation mutants. However, as further deletions of the gene re-established full function to the smaller truncated Hsp47 mutants, expressing then little more than the H1,A-A2-consensus region discussed below, we assume that the loss of function of the C-terminal truncation of Hsp47's serpin domain causes a conformational change in the protein which normalizes with further truncation. […]

Balb/c mice = experiment: Murine GvHD model, bone marrow transplant; assay type: in vivo, mouse; details: for protection from GvHD: 300 μg Hsp47-Gst protein with graft cells, single injection day 0, monitored 4 weeks, 5 animals
Procedure: Male Balb/c mice were twice irradiated with 500 Rads prior to transplantation. Bone marrow (BM) and spleen derived stem cells were obtained from B10D2 (H-2^d background) mice. 2.5×10^6 BM and 1×10^6 spleen cells were pooled as a graft source for each recipient male Balb/c animal. This non-enriched stem cell population of cells were either suspended in RPMI containing 300 μg Hsp47-Gst protein in 300 μl total volume, or, in buffer containing 100 μg of Gst control protein alone. Cells and protein were given in a single injection on day 0. No other immunosuppressive treatments were given. Animals were monitored for 4 weeks after the bone marrow transplant.

HUVEC = experiment: ^51Cr release CIK cytotoxicity assay, endothelial cell targets pre-treated with BFA, protein or peptide; assay type: cell-based, human
Procedure: (§1) Target cells were metabolically labelled with ^51Cr (Dupont—New England Nuclear, Boston, Mass.) by incubating 1×10^6 cells in […] ^51Cr at 37° C. for 1-1.5 hours. The labelled cells were washed three times with phosphate buffered saline (PBS) containing 0.1% bovine serum albumin. The labelled cells were distributed in flat-bottomed 96 well microtiter plates at a concentration of 2×10^4 cells/well in triplicate. Effector (CIK) cells were added at the indicated ratios. Mabs were added prior to the addition of effector cells, and incubated for 15-30 minutes at room temperature. The final volume of the assay mixture in each well was 0.2 ml. After 4 hours at 37° C., the cells were collected by centrifugation and an aliquot of the supernatant was counted in a gamma counter (Micromedic Systems, Horsham, Pa.). The percentage of specific ^51Cr release was calculated according to the following equation: […]
Spontaneous release was obtained by incubating the labelled cells in complete medium alone and maximal release by treatment of the cells with 1% NP-40.
For brefeldin A (BFA) treatment, freshly confluent HUVEC monolayers, nonadherent target cells or CIK cells at 0.5-2×10^6 cells per ml were incubated with medium supplemented with 0.5-10 μg of brefeldin A (B6hringer Mannheim GmbH, Mannheim, Germany) per ml medium and incubated for 2-6 hours in a humidified incubator with 5% carbon dioxide at 37° C. BFA was dissolved at 100 μg per ml in 70% ethanol and used fresh or stored up to 4 weeks at −20° C. Prior to cytotoxicity assay the cells were rinsed three times with PBS, and fresh medium not containing BFA was added for the remainder of the assay (FIG. 4).
Both HUVEC and OCI-Ly8 cells were incubated with BFA at concentrations of 0, 2.5, 5, 7.5 and 10 μM for 6 hours as described above, washed, labeled with ^51Cr and used in a cytotoxicity assay with d21 CIK cells at an E:T ratio of 20:1. Preincubation of EC targets with 2.5 μM BFA reduced CIK mediated cytotoxicity by 40%.
Subsequent to ^51Cr labeling but prior to addition of effector cells 10-200 μg FPLC purified Hsp47 (Example 7) protein or 10 nM to 10 μM HPLC purified peptide […] (SEQ ID NO:3) (Example 8), both in sterile PBS at pH 7.4 and diluted to the final concentration with RPMI, were added to targets per ml of medium and incubated for 30 minutes at 37° C. in a humidified atmosphere of 5% CO2. In assays using purified protein, targets were subjected to three subsequent washes with 10 volumes of Ca^2+, Mg^2+ and 5% FCS containing PBS prior to providing fresh standard culture medium to the target cells. In assays using purified peptide, the added peptide was present for the entire assay. The remainder of the assay was performed as detailed above, at 37° C. in a humidified atmosphere of 5% CO2.

OCI-Ly8 tumor cell = experiment: ^51Cr release CIK cytotoxicity assay, tumor targets; assay type: cell-based, human; details: peptide 10 μM, E:T 20:1
Procedure: as §1
Spontaneous release was obtained by incubating the labelled cells in complete medium alone and maximal release by treatment of the cells with 1% NP-40. […]

[1] = Solubility of synthesized peptide; assay type: physicochemical; details: used in PBS and RPMI 1640
Procedure: A hydrophilic 9 mer peptide of the sequence […] (SEQ ID NO:3) which corresponds to the region of shared homology of Hsp47 with HLA-A2 was synthesized by the Stanford PAN facility on a BioApplied® peptide synthesizer, HPLC purified and verified by amino acid sequencing. Pure peptide was lyophilized and stored at −20° C.

major serine proteases = details: Davids et al. 1995; cited from earlier work

huHsp47-GST protein: fusion protein of human Hsp47 and N-terminally tagged glutathione-S-transferase, expressed in bacteria
irreversible inhibition of granzymes (granzyme A): not able to demonstrate a function of Hsp47 as an irreversible inhibitor
protection from GvHD (Balb/c mice): none developed graft vs. host disease
protection from GvHD (Balb/c mice; listed as Hsp-Gst protein): protected from the onset of GvHD, fur ruffling, weight loss and death
opportunistic infection (Balb/c mice; full body irradiated mice, BMT, over the time period tested): none developed opportunistic infection
reduction of EC lysis (HUVEC; 1 μM huHsp47-GST protein): 50%
protection of EC by purified recombinant protein (HUVEC; dose response): protects EC in a dose responsive fashion
protection of EC from CIK mediated lysis (HUVEC; pre-incubation with 10 μM huHsp47-GST protein): completely protects

AVLSAEQLR
reduction of specific target lysis, CIK-OCI-Ly8 tumor cell ^51Cr cytotoxicity assay (OCI-Ly8 tumor cell): less than 10%
solubility in aqueous solution [1]: soluble in aqueous solution

B1: murine Hsp47: purified murine Hsp47 from cited work (protein, UniProt P19324 18-417, looked up)
Serpin H1: AEVKKPLEAAAPGTAEKLSSKATTLAERSTGLAFSLYQAMAKDQAVENILLSPLVVASSLGLVSLGGKATTASQAKAVLSAEKLRDEEVHTGLGELLRSLSNSTARNVTWKLGSRLYGPSSVSFADDFVRSSKQHYNCEHSKINFRDKRSALQSINEWASQTTDGKLPEVTKDVERTDGALLVNAMFFKPHWDEKFHHKMVDNRGFMVTRSYTVGVTMMHRTGLYNYYDDEKEKLQMVEMPLAHKLSSLIILMPHHVEPLERLEKLLTKEQLKAWMGKMQKKAVAISLPKGVVEVTHDLQKHLAGLGLTEAIDKNKADLSRMSGKKDLYLASVFHATAFEWDTEGNPFDQDIYGREELRSPKLFYADHPFIFLVRDNQSGSLLFIGRLVRPKGDKMRDEL
inhibition of major serine proteases (major serine proteases): failed to inhibit
